The subject of assay [1] is naked mouse oocytes. Nature of the assay: Test of meiosis-inhibiting substances in the oocyte test (co-culture with FF-MAS in Hx-medium). The assay is classed as cell-based. Particulars: for Oocytes [n] GV: number of oocytes with germinal vesicle; for Oocytes [n] GVB: number of oocytes with germinal vesicle breakdown; for Oocytes [n] PB: number of oocytes with polar bodies. The method, then: Oocytes were obtained from immature female mice (C57BI/6J × DBA/2J F1-hybrids, Bomholtgaard, Denmark) weighing 13 - 16 grams, that were kept under controlled lighting and temperature. The mice received an intra-peritoneal injection of 0.2 ml gonadotropins (Gonal F, Serono, Solna, Sweden , containing 20 IU FSH, alternatively, Puregon, Organon, Swords, Ireland containing 20 IU FSH) and 48 hours later the animals were killed by cervical dislocation. The ovaries were dissected out and the oocytes were isolated in Hx-medium (see below) under a stereo microscope by manual rupture of the follicles using a pair of 27 gauge needles. Spherical, naked oocytes (NO) displaying an intact germinal vesicle (GV) were placed in α-minimum essential medium (α-MEM without ribonucleosides, Gibco BRL, Cat.No. 22561) supplemented with 3 mM hypoxanthine (Sigma Cat. No. H-9377), 8 mg/ml Human Serum Albumin (HSA, State Serum Institute, Denmark), 0,23 mM pyrubate (Sigma, Cat. No. S-8636), 2 mM glutamine (Flow Cat. No. 16-801), 100 IU/ml penicillin and 100 µg/ml streptomycin (Flow, Cat No. 16-700). This medium was designated Hx-medium. The oocytes were rinsed three times in Hx-medium and cultured in 4-well multidishes (Nuncion, Denmark) in which each well contained 0.4 ml of Hx-medium and 30 - 40 oocytes. One control (i.e. 30 - 40 oocytes cultured in Hx-medium with no addition of test compound) was always run simultaneously with the test cultures, which were made with different concentrations of the compounds to be tested. The cultures were performed at 37 °C and 100 % humidity with 5 % CO2 in air. The culture time was 22 - 24 hours. Germinal vesicle (GV) oocytes were obtained from immature FSH treated female mice using the same methods as described in Example 1 (see above). Naked oocytes (NO) were rinsed three times in Hx-medium. […] NO were cultured in Hx-medium supplemented with 5 µM FF-MAS in co-culture with the test compounds in different concentrations in 4-well multidishes (Nunclon, Denmark) in which each well contained 0.4 ml of Hx-medium and 30 - 40 oocytes. One positive control (i.e., 30 - 40 oocytes cultured in Hx-medium containing FF-MAS with no addition of test compound) was always run simultaneously with the test cultures, which were supplemented with different concentrations of the compounds to be tested. In addition, one negative control ( 30 - 40 oocytes cultured in Hx-medium alone) was run simultaneously with the positive control. By the end of the culture period, the number of oocytes with germinal vesicle (GV) or germinal vesicle breakdown (GVB) and those with polar body (PB) was counted using a stereo microscope or an inverted microscope with differential interference contrast equipment. The percentage of oocytes with GVB + PB per total number of oocytes were calculated in the test cultures and in the control (positive and negative) culture groups. The relative inhibition of the test compound was calculated by the following formula: inhibition test compound (%) = 100% - [(GVB+PB (test compound) - GVB+PB (negative control)) x 100 / GVB+PB(positive control) - GVB+PB (negative control)] % [formula] Oocytes arrested in meiosis are characterised by an intact nucleus with a prominent nucleolus, known as germinal vesicle (GV). Upon reinitiation of meiosis the nucleolus and the nuclear envelope disappear and this is characterised by a breakdown of the GV, which than is called germinal vesicle breakdown (GVB). Some hours later the oocyte complete a reductional division and elicit the first so called polar body (PB).

Assay [2] deals with naked mouse oocytes. The assay is described as follows: Testing of meiosis-activating substances in the oocyte test (Hx-medium). Format: cell-based. Particulars: 10 µM in Hx-medium. The method, then:
Oocytes were obtained from immature female mice (C57BI/6J × DBA/2J F1-hybrids, Bomholtgaard, Denmark) weighing 13 - 16 grams, that were kept under controlled lighting and temperature. The mice received an intra-peritoneal injection of 0.2 ml gonadotropins (Gonal F, Serono, Solna, Sweden , containing 20 IU FSH, alternatively, Puregon, Organon, Swords, Ireland containing 20 IU FSH) and 48 hours later the animals were killed by cervical dislocation.
The ovaries were dissected out and the oocytes were isolated in Hx-medium (see below) under a stereo microscope by manual rupture of the follicles using a pair of 27 gauge needles. Spherical, naked oocytes (NO) displaying an intact germinal vesicle (GV) were placed in α-minimum essential medium (α-MEM without ribonucleosides, Gibco BRL, Cat.No. 22561) supplemented with 3 mM hypoxanthine (Sigma Cat. No. H-9377), 8 mg/ml Human Serum Albumin (HSA, State Serum Institute, Denmark), 0,23 mM pyrubate (Sigma, Cat. No. S-8636), 2 mM glutamine (Flow Cat. No. 16-801), 100 IU/ml penicillin and 100 µg/ml streptomycin (Flow, Cat No. 16-700). This medium was designated Hx-medium. The oocytes were rinsed three times in Hx-medium and cultured in 4-well multidishes (Nuncion, Denmark) in which each well contained 0.4 ml of Hx-medium and 30 - 40 oocytes. One control (i.e. 30 - 40 oocytes cultured in Hx-medium with no addition of test compound) was always run simultaneously with the test cultures, which were made with different concentrations of the compounds to be tested. The cultures were performed at 37 °C and 100 % humidity with 5 % CO2 in air. The culture time was 22 - 24 hours.
By the end of the culture period, the number of oocytes with germinal vesicle (GV) or germinal vesicle breakdown (GVB) and those with polar body (PB) was counted using a stereo microscope or an inverted microscope with differential interference contrast equipment. The percentage of oocytes with GVB per total number of oocytes and the percentage of oocytes with PB per total number of oocytes was calculated in the test cultures and compared to the control culture.
Oocytes arrested in meiosis are characterised by an intact nucleus with a prominent nucleolus, known as germinal vesicle (GV). Upon reinitiation of meiosis the nucleolus and the nuclear envelope disappear and this is characterised by a breakdown of the GV, which than is called germinal vesicle breakdown (GVB). Some hours later the oocyte complete a reductional division and elicit the first so called polar body (PB).

The mark [3] stands for this setting: 5µM FF-MAS alone in Hx-medium (positive control).
Setting [4] is: 5µM FF-MAS + 10 µM test compound in Hx-medium.
[5] abbreviates: 5µM FF-MAS + 10 µM test compound in Hx-medium, relative inhibition of meiosis.

Values joined by “and” are separate entries in the source; they are usually repeats but may differ in a detail not shown here. Identical values can stand only once.

The inhibition is how much of the control response was suppressed. A higher inhibition goes with strong suppression. As for `CC(C)=CCC[C@@H](C)[C@H]1CC=C2C3=C(CC[C@@]21C)[C@@]1(C)CC[C@H](O)C(C)(C)[C@@H]1CC3` [FF-MAS, 4,4-Dimethylcholest-B, 14,24-trien-3β-ol], in the assay on naked mouse oocytes [1] (setting [3]), the “Oocytes [n] GV” value was 4 n and 8 n; the “Oocytes [n] GVB” value is 16 n and 25 n. Moreover, at 5 µM the inhibition in the assay with naked mouse oocytes [1] (Mus musculus, Oocyte, 5µM FF-MAS alone in Hx-medium (positive control), relative inhibition of meiosis) was 0%. Also, in the assay on naked mouse oocytes [2], the “Oocytes [n] GV” value was found to be 6 n, the “Oocytes [n] GVB” value turned out to be 31 n and the “Oocytes [n] PB” value is listed as 2 n. The activation at 10 µM in the assay with naked mouse oocytes [2] (Mus musculus, Oocyte, read-out: Activation [%] GVB+PB) was found to be 85%.
As to `CC(C)=CCO[C@H]1CC[C@H]2[C@@H]3CC[C@]45C[C@H](CC[C@]4(C)[C@H]3CC[C@]12C)OC5=O` [Example 12, 17β-(prenyloxy)-5β-androstane-5,3β-carbolactone], in the assay with naked mouse oocytes [1] (setting [4]), the “Oocytes [n] GV” value was 24 n, the “Oocytes [n] GVB” value was found to be 9 n and the “Oocytes [n] PB” value is 1 n. Further, the “Inhibition [%]” value in the assay with naked mouse oocytes [1] (setting [5]) is listed as 84%.
For `CC(C)CCC[C@@H](C)[C@H]1CC[C@H]2C3=C(CC[C@]12C)[C@@]1(C)CC[C@@]2(OCCO)C[C@]1(CC3)[C@H](C)O2` [Example 5, 2-[(4aα-methyl-4a-homo-3α,5-methano-4-oxa-5α-cholest-8-en-3β-yl)oxy]ethanol], in the assay on naked mouse oocytes [1] (setting [4]), the “Oocytes [n] GV” value amounted to 30 n, the “Oocytes [n] GVB” value was found to be 0 n and the “Oocytes [n] PB” value is recorded as 0 n. In addition, the “Inhibition [%]” value with naked mouse oocytes [1] (setting [5]) is given as 100%.

Source of the values: patent EP1127890A1, “Steroid derivatives with an additional ring annulated to ring A and use of these derivatives for the preparation of meiosis regulating medicaments” (SCHERING AKTIENGESELLSCHAFT, priority 2000, dated 2001).
